{"source": "patent US20040039053A1", "about": "“Use of(-) (3-halomethylphenoxy) (4-halophenyl) acetic acid derivatives for treatment of insulin resistance, type 2 diabetes, hyperlipidemia and hyperuricemia” (priority 2000, published 2004)", "key": {"CYP3A4": {"molecular_target": "CYP3A4 (Homo sapiens, UniProt P08684)", "sequence (P08684 whole entry)": "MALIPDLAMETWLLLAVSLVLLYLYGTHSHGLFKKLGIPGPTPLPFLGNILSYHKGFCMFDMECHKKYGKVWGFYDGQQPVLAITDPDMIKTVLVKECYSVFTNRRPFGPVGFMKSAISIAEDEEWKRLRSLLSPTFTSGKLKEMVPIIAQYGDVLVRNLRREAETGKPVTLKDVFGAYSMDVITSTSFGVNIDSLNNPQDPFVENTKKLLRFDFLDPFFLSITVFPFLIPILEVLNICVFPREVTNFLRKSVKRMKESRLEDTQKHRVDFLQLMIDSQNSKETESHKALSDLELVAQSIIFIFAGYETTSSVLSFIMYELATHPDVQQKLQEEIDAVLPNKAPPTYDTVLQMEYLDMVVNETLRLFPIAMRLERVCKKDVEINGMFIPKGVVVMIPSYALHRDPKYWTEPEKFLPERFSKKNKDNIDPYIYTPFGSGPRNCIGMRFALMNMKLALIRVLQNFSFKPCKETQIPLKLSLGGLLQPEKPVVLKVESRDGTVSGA", "conditions": "both, 10 min"}, "CYP1A2": {"molecular_target": "T1, CYP1A2 (Homo sapiens, UniProt P05177)", "T1 sequence (P05177 1-516)": "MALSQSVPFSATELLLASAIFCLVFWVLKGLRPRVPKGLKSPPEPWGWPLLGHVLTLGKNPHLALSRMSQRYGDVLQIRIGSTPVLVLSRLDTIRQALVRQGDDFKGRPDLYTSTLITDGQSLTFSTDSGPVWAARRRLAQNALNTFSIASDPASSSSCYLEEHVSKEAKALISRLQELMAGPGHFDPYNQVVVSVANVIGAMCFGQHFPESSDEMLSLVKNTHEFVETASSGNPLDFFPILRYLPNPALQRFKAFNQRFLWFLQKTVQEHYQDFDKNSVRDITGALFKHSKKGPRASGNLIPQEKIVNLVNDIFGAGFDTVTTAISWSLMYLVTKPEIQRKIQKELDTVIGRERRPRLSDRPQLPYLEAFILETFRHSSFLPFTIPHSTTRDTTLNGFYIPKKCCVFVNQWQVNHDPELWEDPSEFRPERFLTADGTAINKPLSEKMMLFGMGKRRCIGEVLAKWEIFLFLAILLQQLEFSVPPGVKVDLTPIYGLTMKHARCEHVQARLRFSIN", "conditions": "both, 30 min"}, "CYP2D6": {"molecular_target": "CYP2D6 (Homo sapiens, UniProt P10635)", "sequence (P10635 whole entry)": "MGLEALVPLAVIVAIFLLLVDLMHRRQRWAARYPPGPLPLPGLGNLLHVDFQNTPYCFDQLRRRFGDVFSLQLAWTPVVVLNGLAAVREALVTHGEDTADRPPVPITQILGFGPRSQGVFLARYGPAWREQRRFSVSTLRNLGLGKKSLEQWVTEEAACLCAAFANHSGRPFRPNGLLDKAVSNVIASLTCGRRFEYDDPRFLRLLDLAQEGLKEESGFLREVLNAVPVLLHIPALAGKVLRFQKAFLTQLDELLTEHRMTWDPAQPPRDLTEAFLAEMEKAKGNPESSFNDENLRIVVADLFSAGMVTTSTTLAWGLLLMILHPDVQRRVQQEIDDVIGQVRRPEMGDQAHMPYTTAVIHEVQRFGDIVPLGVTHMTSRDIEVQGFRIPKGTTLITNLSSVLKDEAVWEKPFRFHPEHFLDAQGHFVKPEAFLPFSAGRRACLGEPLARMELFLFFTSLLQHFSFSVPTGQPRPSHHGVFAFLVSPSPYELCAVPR", "conditions": "both, 15 min"}}, "note": "Read-outs that look alike come from different tables or passages of the source.", "data": [{"smiles": "O=C(O)C(Oc1cccc(C(F)(F)F)c1)c1ccc(Cl)cc1", "note": "(single isomer, unassigned; (-)) [(−) halofenic acid, (−) 4-chlorophenyl-(3-trifluoromethylphenoxy)-acetic acid]", "values": [{"measurement": "Testosterone 6β-OHT Production", "setting": "CYP3A4; 0.33 µM", "result": "1816 ± 12", "unit": "pmol/mg protein/min"}, {"measurement": "Testosterone 6β-OHT Production", "setting": "CYP3A4; 1 µM", "result": "1851 ± 14", "unit": "pmol/mg protein/min"}, {"measurement": "Testosterone 6β-OHT Production", "setting": "CYP3A4; 3.3 µM", "result": "1810 ± 3", "unit": "pmol/mg protein/min"}, {"measurement": "Testosterone 6β-OHT Production", "setting": "CYP3A4; 10 µM", "result": "1819 ± 4", "unit": "pmol/mg protein/min"}, {"measurement": "Testosterone 6β-OHT Production", "setting": "CYP3A4; 33.3 µM", "result": "1816 ± 6", "unit": "pmol/mg protein/min"}, {"measurement": "Phenacetin AC Production", "setting": "CYP1A2; 0.33 μM", "result": "116 ± 2", "unit": "pmol/mg protein/min"}, {"measurement": "Phenacetin AC Production", "setting": "CYP1A2; 1 μM", "result": "118 ± 2", "unit": "pmol/mg protein/min"}, {"measurement": "Phenacetin AC Production", "setting": "CYP1A2; 3.3 μM", "result": "119 ± 2", "unit": "pmol/mg protein/min"}, {"measurement": "Phenacetin AC Production", "setting": "CYP1A2; 10 μM", "result": "119 ± 2", "unit": "pmol/mg protein/min"}, {"measurement": "Phenacetin AC Production", "setting": "CYP1A2; 33.3 μM", "result": "119 ± 2", "unit": "pmol/mg protein/min"}, {"measurement": "Dextromethorphan DEX Production", "setting": "CYP2D6; 0.33 μM", "result": "107 ± 4", "unit": "pmol/mg protein/min"}, {"measurement": "Dextromethorphan DEX Production", "setting": "CYP2D6; 1 μM", "result": "110 ± 2", "unit": "pmol/mg protein/min"}, {"measurement": "Dextromethorphan DEX Production", "setting": "CYP2D6; 3.3 µM", "result": "104 ± 3", "unit": "pmol/mg protein/min"}, {"measurement": "Dextromethorphan DEX Production", "setting": "CYP2D6; 10 µM", "result": "107 ± 1", "unit": "pmol/mg protein/min"}, {"measurement": "Dextromethorphan DEX Production", "setting": "CYP2D6; 33.3 µM", "result": "106 ± 4", "unit": "pmol/mg protein/min"}]}]}
